Measured values published in the supplement of paper PMC13380429.

Key:
Conditions in all cases: 72 h
[1] = test system: Calu-3; experiment: cell viability relative to DMSO; higher = less toxic
[2] = test system: Vero E6; experiment: as above
[3] = test system: U2OS; experiment: as above
[4] = test system: Caco-2; experiment: as above
[5] = test system: HepG2; experiment: as above
[6] = test system: Calu-3; experiment: drug sensitivity score (DSS) for viability; higher = more toxic; extreme values may be limits of the assay
[7] = test system: Vero E6; experiment: as above
[8] = test system: U2OS; experiment: as above
[9] = test system: Caco-2; experiment: as above
[10] = test system: HepG2; experiment: as above
[11] = test system: Calu-3; experiment: relative viability EC50 (midpoint between 100% and the lowest measured viability); higher = less toxic
[12] = test system: U2OS; experiment: as above
[13] = test system: HepG2; experiment: as above
[14] = test system: Vero E6; experiment: as above

SMILES	cell viability ([1]; 1 nM) [%]	cell viability ([1]; 10 nM) [%]	cell viability ([1]; 100 nM) [%]	cell viability ([1]; 1000 nM) [%]	cell viability ([1]; 10000 nM) [%]	cell viability ([2]; 1 nM) [%]	cell viability ([2]; 10 nM) [%]	cell viability ([2]; 100 nM) [%]	cell viability ([2]; 1000 nM) [%]	cell viability ([2]; 10000 nM) [%]	cell viability ([3]; 1 nM) [%]	cell viability ([3]; 10 nM) [%]	cell viability ([3]; 100 nM) [%]	cell viability ([3]; 1000 nM) [%]	cell viability ([3]; 10000 nM) [%]	cell viability ([4]; 1 nM) [%]	cell viability ([4]; 10 nM) [%]	cell viability ([4]; 100 nM) [%]	cell viability ([4]; 1000 nM) [%]	cell viability ([4]; 10000 nM) [%]	cell viability ([5]; 1 nM) [%]	cell viability ([5]; 10 nM) [%]	cell viability ([5]; 100 nM) [%]	cell viability ([5]; 1000 nM) [%]	cell viability ([5]; 10000 nM) [%]	drug sensitivity score [6]	drug sensitivity score [7]	drug sensitivity score [8]	drug sensitivity score [9]	drug sensitivity score [10]	relative viability EC50 [11] [µM]	relative viability EC50 [12] [µM]	relative viability EC50 [13] [µM]	relative viability EC50 [14] [µM]
Cc1c(NC(=O)OC[C@@H]2COCCN2)cn2ncnc(Nc3ccc4c(cnn4Cc4cccc(F)c4)c3)c12	97.2	96.4	92.4	64.5	26.4	98.5	103	91.7	84.1	60.7	96.6	101	99.4	96.3	79.3	102	101	85.1	88.2	69.3	89.8	104	96	99.1	82.2	8.2	3.5	1.1	3	0.5	0.988	> 10	> 10	–
Cc1cc(F)c(Nc2ncnc3cc(OCc4ccccc4)ccc23)cc1O	104	95.1	89.4	104	76.9	99.9	103	99.3	96.2	84	97.9	101	96.8	102	72.9	101	96.6	88.4	79.4	74	105	95.5	106	100	85.5	0.6	0.7	0.9	4	0.2	> 10	–	> 10	> 10
OCCNCCCOc1cccc(Cl)c1Cl [2,3-DCPE]	99.1	98.6	98.1	97.5	107	92.5	96.1	103	97.9	15.5	105	101	100	101	18.1	93.9	105	106	98.7	69.4	103	96.1	89.7	97.6	13.3	0	5	4.5	1.5	5.1	> 10	3.21	2.96	2.99
O=C(CCCc1ccc(-c2ccccc2F)cc1)Nc1ccc(O)cc1 [CMPD-1]	94.2	105	99	88.8	86.3	97.2	95.3	99.6	97.6	95.5	94.9	99.4	94.2	74.8	36.6	95.6	92.4	97.5	112	71.9	99	97.8	107	99.2	42.6	0.8	0	6.3	0.8	3.2	> 10	1.27	3.08	> 10
CC[C@H](CO)Nc1nc(Nc2cccc(-c3ccccn3)c2)c2ncn(C(C)C)c2n1 [DRF053-(R)]	94.7	94.9	90.7	104	80.3	92	92.3	92.7	89.8	81.7	102	101	94.7	99.6	94.4	99.6	86.9	91.2	93.2	67.4	98.8	108	107	94.5	66.2	0.4	1	0	2.4	2.5	> 10	> 10	–	> 10
Cc1cc([N+](=O)[O-])ccc1NS(=O)(=O)c1cc(Cl)ccc1Cl [FH-535]	104	92.4	105	101	93.2	98.3	102	94.1	92.8	79.2	101	97.6	93.3	96.9	89.5	107	103	110	87.2	60.3	100	106	94.5	96.7	50.1	0	0.9	0	3.8	3.1	> 10	> 10	–	> 10
